From the Kinase Knowledgebase extract (Sharma et al. 2016) come the findings set out here.

Molecules are shown by their SMILES. pIC50: −log10 of the molar value.

The target of assay [1] is EGFR (murine) (UniProt P00533). The note with it: f/l herc cells.
Assay [2] deals with EGFR (human) (UniProt P00533). The note with it: kb.
EGFR (human), sequence (P00533 whole entry, looked up): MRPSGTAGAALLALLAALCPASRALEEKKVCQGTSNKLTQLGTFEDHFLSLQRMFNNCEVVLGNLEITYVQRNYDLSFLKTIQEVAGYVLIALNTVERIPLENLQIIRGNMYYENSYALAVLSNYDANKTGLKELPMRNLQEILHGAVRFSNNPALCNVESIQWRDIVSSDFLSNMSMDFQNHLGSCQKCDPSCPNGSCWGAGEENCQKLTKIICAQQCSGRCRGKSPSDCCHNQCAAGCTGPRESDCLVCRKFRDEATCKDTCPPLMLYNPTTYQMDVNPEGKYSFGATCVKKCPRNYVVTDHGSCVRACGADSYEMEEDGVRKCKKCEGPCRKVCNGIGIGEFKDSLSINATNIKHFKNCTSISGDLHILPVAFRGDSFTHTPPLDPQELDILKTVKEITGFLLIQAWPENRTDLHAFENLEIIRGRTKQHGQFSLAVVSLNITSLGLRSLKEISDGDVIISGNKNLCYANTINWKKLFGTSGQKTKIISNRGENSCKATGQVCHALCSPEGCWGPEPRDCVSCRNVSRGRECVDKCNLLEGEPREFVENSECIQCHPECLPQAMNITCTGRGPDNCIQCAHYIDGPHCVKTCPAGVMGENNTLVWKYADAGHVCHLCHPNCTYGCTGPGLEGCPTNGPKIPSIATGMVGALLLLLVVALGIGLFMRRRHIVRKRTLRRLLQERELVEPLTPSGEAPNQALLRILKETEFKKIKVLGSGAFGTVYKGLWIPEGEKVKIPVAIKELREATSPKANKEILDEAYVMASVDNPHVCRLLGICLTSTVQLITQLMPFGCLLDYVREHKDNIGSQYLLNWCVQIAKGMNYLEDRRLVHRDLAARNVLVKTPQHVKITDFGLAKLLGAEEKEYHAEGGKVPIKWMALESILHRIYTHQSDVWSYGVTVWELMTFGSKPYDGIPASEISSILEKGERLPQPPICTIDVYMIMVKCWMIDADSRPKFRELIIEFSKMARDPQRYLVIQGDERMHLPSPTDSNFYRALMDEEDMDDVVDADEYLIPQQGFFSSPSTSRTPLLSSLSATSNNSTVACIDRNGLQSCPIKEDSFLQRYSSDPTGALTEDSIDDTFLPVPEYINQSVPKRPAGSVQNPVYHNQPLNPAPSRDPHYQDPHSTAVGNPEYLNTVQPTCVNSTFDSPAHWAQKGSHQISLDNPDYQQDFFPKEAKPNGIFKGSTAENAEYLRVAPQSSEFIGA

EGFR (murine), sequence (P00533 whole entry, looked up): as above

What is called pIC50 is −log10 of the IC50, conventionally taken in molar units. The low end stands for a large IC50, the high end for a small IC50. `Nc1c(Br)cc(Nc2ncnc3cnc(N4CCC(N)CC4)nc23)cc1Br` showed a pIC50 in assay [1] below 9.00.
The same measure, in the same setting: under `COC(=O)[C@H]1CC[C@H](Nc2ncc3ncnc(Nc4ccc(F)c(Cl)c4)c3n2)CC1` stands below 8.00; under `OCc1cccc(Nc2ncnc3cnc(N[C@H]4CC[C@H](O)CC4)nc23)c1`, below 9.00; under `NCCCCNc1ncc2ncnc(Nc3ccc(F)c(Cl)c3)c2n1`, below 8.00.
The same measure, in the same setting: then `NC1CCCN(c2ncc3ncnc(Nc4ccc(F)c(Cl)c4)c3n2)CC1` (stereo not drawn), with below 9.00; and `Fc1ccc(Nc2ncnc3cnc(N4CCCCC4)nc23)cc1Cl`, with below 9.00.
The same measure, in the same setting: under `CC(C)(N)CNc1ncc2ncnc(Nc3ccc(F)c(Cl)c3)c2n1` stands below 8.00.
For the compound `Nc1c(Cl)cc(Nc2ncnc3cnc(N[C@H]4CC[C@H](C(=O)N5CCCC5)CC4)nc23)cc1Cl`, the values for the negative logarithm of the IC50 (pIC50) in assay [1] and in assay [2] were below 9.00 and 6.00 to 7.00, respectively.
Take `NCC1CCCC(CNc2ncc3ncnc(Nc4ccc(F)c(Cl)c4)c3n2)C1` (stereo not drawn): the pIC50 in assay [1] is below 9.00.
Same read-out and setting: under `COC(CNc1ncc2ncnc(Nc3ccc(F)c(Cl)c3)c2n1)OC` stands below 7.70; under `NCCCNc1ncc2ncnc(Nc3ccc(F)c(Cl)c3)c2n1`, below 8.00; under `O=CNC1CCN(c2ncc3ncnc(Nc4ccc(F)c(Cl)c4)c3n2)CC1`, below 8.00.
The same measure, in the same setting: under `CC(N)CNc1ncc2ncnc(Nc3ccc(F)c(Cl)c3)c2n1` (stereo not drawn) stands below 8.00.
Take `Nc1c(Cl)cc(Nc2ncnc3cnc(N[C@H]4CC[C@H](C(=O)O)CC4)nc23)cc1Cl`: the pIC50 in assay [1] is below 9.00; in assay [2], 6.00 to 7.00.
`Nc1ncc2ncnc(Nc3ccc(F)c(Cl)c3)c2n1` had a pIC50 in assay [1] below 9.00.
On the same count and under the same terms, then `Nc1cc(Cl)c(Nc2ncnc3cnc(N[C@H]4CC[C@H](O)CC4)nc23)cc1Cl`, with below 8.00; and `NCCCCCNc1ncc2ncnc(Nc3ccc(F)c(Cl)c3)c2n1`, with below 9.00.
As to `Fc1ccc(Nc2ncnc3cnc(N4CCCNCC4)nc23)cc1Cl`, the negative logarithm of the IC50 (pIC50) in assay [1] was below 8.00.
Same read-out and setting: then `CN1CCC(N(C)c2ncc3ncnc(Nc4ccc(F)c(Cl)c4)c3n2)CC1`, with 8.00; and `CC1CC(c2ccc(O)cc2)CN1c1ncc2ncnc(Nc3ccc(F)c(Cl)c3)c2n1` (stereo not drawn), with below 9.00.
Regarding `CC(CN1CCCCC1)Nc1ncc2ncnc(Nc3ccc(F)c(Cl)c3)c2n1` (stereo not drawn), the pIC50 is below 9.00 in assay [1] and 6.00 to 7.00 in assay [2].
For `Fc1ccc(Nc2ncnc3cnc(NCC45CCN(CC4)CC5)nc23)cc1Cl`, the negative-log IC50 (pIC50) in assay [1] was below 9.00.
On the same count and under the same terms, under `CN1CCCN(c2ncc3ncnc(Nc4ccc(F)c(Cl)c4)c3n2)CC1` stands below 8.00; under `CN1CCC(CNc2ncc3ncnc(Nc4ccc(F)c(Cl)c4)c3n2)CC1`, below 9.00.
`NCC1CCC(CNc2ncc3ncnc(Nc4ccc(F)c(Cl)c4)c3n2)CC1` (stereo not drawn): the pIC50 in assay [1] is below 9.00; in assay [2], 6.00 to 7.00.
As to `O=C(N1CCOCC1)N1CCN(CCNc2ncc3ncnc(Nc4ccc(F)c(Cl)c4)c3n2)CC1`, the pIC50 in assay [1] is below 9.00.
Same read-out and setting: under `CN1CCC(C2CCN(c3ncc4ncnc(Nc5ccc(F)c(Cl)c5)c4n3)CC2)CC1` stands below 9.00; under `Fc1ccc(Nc2ncnc3cnc(N4CCC(N5CCOCC5)CC4)nc23)cc1Cl`, below 7.70.
Still for that read-out and setting: then `Fc1ccc(Nc2ncnc3cnc(NCC4CCNCC4)nc23)cc1Cl`, with below 7.70.
The same measure, in the same setting: under `CN1CCN(C2CCC(Nc3ncc4ncnc(Nc5ccc(F)c(Cl)c5)c4n3)CC2)CC1` (stereo not drawn) stands below 9.00; under `Fc1ccc(Nc2ncnc3cnc(N4CCCCCC4)nc23)cc1Cl`, below 9.00.
In the case of `Nc1c(Cl)cc(Nc2ncnc3cnc(N[C@H]4CC[C@H](C(=O)N5CCOCC5)CC4)nc23)cc1Cl`, the pIC50 in assay [1] was below 9.00; in assay [2], 6.00 to 7.00.
Compound `COc1ccccc1N1CCN(c2ncc3ncnc(Nc4ccc(F)c(Cl)c4)c3n2)CC1` gave a pIC50 in assay [1] below 7.70.
The same measure, in the same setting: then `Fc1ccc(Nc2ncnc3cnc(N4CCC(N5CCCC5)CC4)nc23)cc1Cl`, with 8.00.
For `CCN(CC)CC(C)Nc1ncc2ncnc(Nc3ccc(F)c(Cl)c3)c2n1` (stereo not drawn), the pIC50 was below 9.00 in assay [1] and 6.00 to 7.00 in assay [2].
In assay [1], `Fc1ccc(Nc2ncnc3cnc(NC4CCCN(Cc5ccccc5)CC4)nc23)cc1Cl` (stereo not drawn) gave a pIC50 below 9.00.
In assay [1], `CC(C)(C)OC(=O)N1CCN(CCNc2ncc3ncnc(Nc4ccc(F)c(Cl)c4)c3n2)CC1` showed a pIC50 below 9.00.
As for `COC(=O)N1CCC(Nc2ncc3ncnc(Nc4ccc(F)c(Cl)c4)c3n2)CC1`, the figures for the pIC50 in assay [1] and in assay [2] were below 8.00 and 6.00 to 7.00, respectively.
Regarding `Nc1ccc(CNc2ncc3ncnc(Nc4ccc(F)c(Cl)c4)c3n2)cc1`, in assay [1], the pIC50 is below 8.00.
The same measure, in the same setting: then `NC[C@H]1CC[C@H](Nc2ncc3ncnc(Nc4ccc(F)c(Cl)c4)c3n2)CC1`, with below 9.00; and `CC(C)(C)OC(=O)N1CCC(CNc2ncc3ncnc(Nc4ccc(F)c(Cl)c4)c3n2)CC1`, with below 7.70; and `NCC1CCCN(c2ncc3ncnc(Nc4ccc(F)c(Cl)c4)c3n2)C1` (stereo not drawn), with below 9.00.
Same read-out and setting: then `COc1cccc(N2CCN(c3ncc4ncnc(Nc5ccc(F)c(Cl)c5)c4n3)CC2)c1`, with below 7.70; and `NCCNc1ncc2ncnc(Nc3ccc(F)c(Cl)c3)c2n1`, with below 8.00; and `OC1CCN(c2ncc3ncnc(Nc4ccc(F)c(Cl)c4)c3n2)CC1`, with below 9.00.
Take `CCN(CCO)c1ncc2ncnc(Nc3ccc(F)c(Cl)c3)c2n1`: the pIC50 in assay [1] was below 9.00.
In the case of `O[C@H]1CC[C@H](Nc2ncc3ncnc(Nc4ccc(-c5ccccc5)cc4)c3n2)CC1`, the pIC50 in assay [1] was below 8.00.
With `Fc1ccc(Nc2ncnc3cnc(N4CCC(C5CCNCC5)CC4)nc23)cc1Cl`, the results for the negative logarithm of the IC50 (pIC50) in assay [1] and in assay [2] were below 9.00 and 6.00 to 7.00, respectively.
The matching figures for `NCC1CCN(c2ncc3ncnc(Nc4ccc(F)c(Cl)c4)c3n2)CC1`: below 9.00 and 6.00 to 7.00.
In the case of `Fc1ccc(Nc2ncnc3cnc(NC4CCCNCC4)nc23)cc1Cl` (stereo not drawn), the pIC50 in assay [1] is below 9.00.
Same read-out and setting: under `CC(C)(C)OC(=O)N1CCC(Nc2ncc3ncnc(Nc4ccc(F)c(Cl)c4)c3n2)CC1` stands below 8.00; under `COC(=O)NC1CCN(c2ncc3ncnc(Nc4ccc(F)c(Cl)c4)c3n2)CC1`, below 8.00.
Still for that read-out and setting: then `O[C@H]1CC[C@H](Nc2ncc3ncnc(Nc4cccc(Oc5ccccc5)c4)c3n2)CC1`, with below 8.00.
In the case of `Fc1ccc(Nc2ncnc3cnc(NC4CN5CCC4CC5)nc23)cc1Cl` (stereo not drawn), the pIC50 in assay [1] is below 8.00; in assay [2], 6.00 to 7.00.
As to `O=C(N[C@H]1CC[C@H](CNc2ncc3ncnc(Nc4ccc(F)c(Cl)c4)c3n2)CC1)OCc1ccccc1`, the pIC50 in assay [1] was below 8.00.
On the same count and under the same terms, then `N#CN1CCC(Nc2ncc3ncnc(Nc4ccc(F)c(Cl)c4)c3n2)CC1`, with below 9.00.
Regarding `COC(=O)[C@H]1CC[C@H](Nc2ncc3ncnc(Nc4cc(Cl)c(N)c(Cl)c4)c3n2)CC1`, in assay [1], the pIC50 is below 8.00.
In the case of `CC(C)(C)OC(=O)N1CCCC(Nc2ncc3ncnc(Nc4ccc(F)c(Cl)c4)c3n2)CC1` (stereo not drawn), in assay [1], the pIC50 is below 8.00.
